Tests used:
[1] = molecular target: GLS1 (Homo sapiens (Human), UniProt O94925); assay: GLS Enzyme Potency Assay (Glutamate Oxidase/AmplexRed coupled assay); type: biochemical; conditions: 6His tagged GLS protein (amino acids 63-669), 60 minutes reaction with glutamine
Description: (§1) The following assays were used to measure the effects of the compounds of the present invention: a) GLS Enzyme Potency Assay; b) GLS Cell Potency Assay; c) GLS Cell Proliferation Assay. During the description of the assays, generally: • i. The following abbreviations have been used: CO2=Carbon dioxide; DMEM=Dulbecco's Modified Eagle Medium; DMSO=Dimethyl sulphoxide; EDTA=Ethylenediaminetetraacetic acid; EGTA=Ethylene glycol tetraacetic acid; FCS=Foetal calf serum; h=Hour(s); NBS=Non-binding surface; SDS=Sodium dodecyl sulphate; TRIS=Tris(Hydroxymethyl)aminomethane. • ii. IC50 values were calculated using a smart fitting model in Genedata. The IC50 value was the concentration of test compound that inhibited 50% of biological activity. Assay a): GLS Enzyme Potency Assay
A Glutamate Oxidase/AmplexRed coupled assay was used to measure the ability of compounds to bind to and inhibit the activity of GLS1 in vitro. 6His tagged GLS protein (amino acids 63-669) expressed in E. Coli was purified and stored at −80° C. in aliquots. GLS1 was diluted to 2×working concentration and incubated at r.t. to allow the tetrameric/dimeric forms to reach steady state. Assay measurements were performed in buffer comprising 50 mM TRIS pH 7.8, 100 mM NaPO4, pH 7.8, 0.001% v/v Tween20. Purified recombinant GLS1 protein was diluted in assay buffer to 12 nM and pre-incubated at r.t. for 30 minutes. Test compounds were prepared by dilution in 100% DMSO to give the correct dose range for 12 point concentration response and an appropriate volume (2.5-60 nl) dispensed into 384 well micro assay plates (Greiner product code 784900) using a Labcyte Echo 555 acoustic dispenser. DMSO concentration was maintained at 2% by back filling with DMSO solution. 3 μL of diluted GLS1 protein (12 nM) was then dispensed into each well using a BioRaptr automated dispenser (Beckman-Coulter) and incubated for 15 minutes at r.t. 3 μl of 100 mM glutamine diluted in assay buffer was then added and the reaction incubated at r.t. for 60 minutes. The reaction was then stopped by addition of 45 μM 6-(2-bromoethynyl)-2,3-dimethyl-quinazolin-4-one, 75 μM Amplex Red, 0.375 units/mL Horseradish Peroxidase, 0.12 units/mL Glutamate Oxidase in 100 mM TRIS pH7.5. After 30 minutes at room temp in the dark, plates were read on a Perkin Elmer EnVision using 535/590 nm optic filters and raw data analysed using Genedata to generate IC50 values. An artefact version of the assay where the 6His tagged GLS protein and glutamine were replaced with assay buffer was also used to rule out non specific effects on the assay components.

[2] = test system: cellular GLS activity in PC3 cells; assay: GLS Cell Potency Assay (PC3 coupled assay measuring cellular glutamate depletion); type: cell-based; conditions: Homo sapiens, PC-3; PC3 cells, 6 h incubation, cellular glutamate depletion; read-out: Assay b) GLS Cell Potency Assay IC50
Description: as §1, with “The IC50 value was the concentration of test compound that inhibited 50% of biological activity.” left out
Compounds were assessed for their potential to inhibit cellular GLS activity by use of a PC3 coupled assay measuring cellular glutamate depletion. […] DMSO concentration was maintained at 0.3% by back filling with DMSO solution. PC3 cells were grown in phenol free DMEM, 10% dialyzed FCS, 2 mM glutamine and following dispersal by trypsinisation were plated at 5.6×10^3 cells per well in 40 μl of growth medium directly into the 384 well assay plates containing dispensed compound. After incubation for 6 h at 37° C., 5% CO2 growth media was aspirated and cells lysed in 15 μl of buffer containing 10 mM TRIS pH7.4, 100 mM NaCl, 1 mM EDTA, 1 mM EGTA, 1 mM NaF, 20 mM Na4P2O7, 2 mM Na3VO4, 1% Triton X-100, 10% glycerol, 0.1% SDS and 0.5% deoxycholate.

[3] = test system: NCI-H1703 cells; assay: GLS Cell Proliferation Assay (NCI-H1703); type: cell-based; conditions: Homo sapiens, 120 h; NCI-H1703 cells, 5 days incubation, Sytox Green; read-out: Assay c) GLS Cell Proliferation Assay
Description: as §1, with “The IC50 value was the concentration of test compound that inhibited 50% of biological activity.” left out
The ability of compounds to inhibit cell growth was measured using a 384 well plate NCI-H1703 cell proliferation assay. […] DMSO concentration was maintained at 0.3% by back filling with DMSO solution. Plates were incubated for 5 days at 37° C., 5% CO2, Sytox Green and Saponin added to final concentration of 2 μM and 0.25% respectively and incubated for 6 h prior to analysis. […] IC50 values were calculated by curve fitting to max inhibition of day zero growth using GeneData software analysis.

Sequence of GLS1 (O94925 63-669): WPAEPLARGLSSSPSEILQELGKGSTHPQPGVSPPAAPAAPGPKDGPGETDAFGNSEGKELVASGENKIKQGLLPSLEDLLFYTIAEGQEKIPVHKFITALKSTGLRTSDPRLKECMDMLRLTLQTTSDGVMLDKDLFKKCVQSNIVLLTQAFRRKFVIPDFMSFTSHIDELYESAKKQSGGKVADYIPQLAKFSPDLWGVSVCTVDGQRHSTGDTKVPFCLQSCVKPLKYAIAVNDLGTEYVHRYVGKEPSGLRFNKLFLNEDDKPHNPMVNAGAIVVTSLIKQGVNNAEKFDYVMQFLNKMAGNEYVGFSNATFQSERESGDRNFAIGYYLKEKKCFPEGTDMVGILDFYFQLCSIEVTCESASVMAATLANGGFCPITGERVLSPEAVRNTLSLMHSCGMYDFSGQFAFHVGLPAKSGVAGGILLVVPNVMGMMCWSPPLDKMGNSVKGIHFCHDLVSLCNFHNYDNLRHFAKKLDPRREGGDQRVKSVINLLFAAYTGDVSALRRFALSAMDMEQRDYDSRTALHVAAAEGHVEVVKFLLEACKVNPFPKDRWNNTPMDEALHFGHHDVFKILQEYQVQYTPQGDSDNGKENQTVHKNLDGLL

Row | IC50 [1] [nM] | IC50 [2] [nM] | SMILES | IC50 [3] [nM]
1 | 29.8 | 1 | COc1cccc([C@H](OC)C(=O)Nc2ccc(N3CC[C@@H](Nc4cccnn4)C3)nn2)c1 [Example 3, (2S)-2-Methoxy-2-(3-methoxyphenyl)-N-[6-[(3R)-3-(pyridazin-3-ylamino)pyrrolidin-1-yl]pyridazin-3-yl]acetamide] | 3
2 | 30.9 | 7 | COc1ccccc1CC(=O)Nc1ccc(N2CC[C@@H](Nc3cccnn3)C2)nn1 [Example 4, 2-(2-Methoxyphenyl)-N-[6-[(3R)-3-(pyridazin-3-ylamino)pyrrolidin-1-yl]pyridazin-3-yl]acetamide] | 43
3 | 24.7 | 1 | CO[C@H](C(=O)Nc1ccc(N2CC[C@@H](Nc3cccnn3)C2)nn1)c1cccc(OC(F)F)c1 [Example 1, (2S)-2-[3-(Difluoromethoxy)phenyl]-2-methoxy-N-[6-[(3R)-3-(pyridazin-3-ylamino)pyrrolidin-1-yl]pyridazin-3-yl]acetamide] | 9
4 | 25.2 | 1 | O=C(Cc1ccccc1OC(F)(F)F)Nc1ccc(N2CC[C@@H](Nc3cccnn3)C2)nn1 [Example 6, N-[6-[(3R)-3-(Pyridazin-3-ylamino)pyrrolidin-1-yl]pyridazin-3-yl]-2-[2-(trifluoromethoxy)phenyl]acetamide] | 12
5 | 30.6 | 1 | O=C(Cc1ccccc1C(F)(F)F)Nc1ccc(N2CC[C@@H](Nc3cccnn3)C2)nn1 [Example 5, N-[6-[(3R)-3-(Pyridazin-3-ylamino)pyrrolidin-1-yl]pyridazin-3-yl]-2-[2-(trifluoromethyl)phenyl]acetamide] | 3
6 | 95.7 | 1 | CO[C@H](C(=O)Nc1ccc(N2CC[C@@H](Nc3cccnn3)C2)nn1)c1cccc(OC(F)(F)F)c1 [Example 2, (2S)-2-[3-(Trifluoromethoxy)phenyl]-2-methoxy-N-[6-[(3R)-3-(pyridazin-3-ylamino)pyrrolidin-1-yl]pyridazin-3-yl]acetamide] | 11

Source: patent US10196382B2, “bis-Pyridazine compounds and their use in treating cancer” (AstraZeneca AB, priority 2015, dated 2019)
